Patent US5202315A, “Cephalosporin compounds” (Lucky, Ltd., priority 1989, dated 1993)
In brackets after ≈: the same amount, converted by molar mass. Like-named read-outs stand apart in the source and are kept apart here.

Legend:
[1] = system: Bacillus megaterium ATCC 9885; assay: Antibacterial activity, MIC; format: cell-based; details: Priestia megaterium, ATCC9885; ATCC 9885; agar two-fold dilution, 37° C., 20 hours; read-out: MIC
Description: (§1) Also, the in vitro antibacterial activity was determined by the by a two-fold dilution method as described below:
(§2) That is, the two-fold serial dilutions of the compound were made dispersed in Muller-Hinton agar medium. 2 μl of standard test strain which had the 10^7 CFU per ml was inoculated on the medium, and was incubated at 37° C. for 20 hours.

[2] = system: Proteus vulgaris ATCC 6059; assay: Antibacterial activity, MIC; format: cell-based; details: ATCC6059, ATCC 6059, agar two-fold dilution, 37° C., 20 hours, read-out: MIC
Description: as §1, §2

[3] = system: Proteus mirabilis ATCC 25933; assay: Antibacterial activity, MIC; format: cell-based; details: ATCC25933, ATCC 25933, agar two-fold dilution, 37° C., 20 hours, read-out: MIC
Description: as §1, §2

[4] = system: Shigella sonnei ATCC 11060; assay: Antibacterial activity, MIC; format: cell-based; details: ATCC11060, ATCC 11060, agar two-fold dilution, 37° C., 20 hours, read-out: MIC
Description: as §1, §2

[5] = system: Staphylococcus epidermidis ATCC 12228; assay: Antibacterial activity, MIC; format: cell-based; details: ATCC12228, ATCC 12228, agar two-fold dilution, 37° C., 20 hours, read-out: MIC
Description: as §1, §2

[6] = system: Shigella flexneri ATCC 11836; assay: Antibacterial activity, MIC; format: cell-based; details: ATCC11836, agar two-fold dilution, 37° C., 20 hours
Description: as §1, §2

[7] = system: Serratia marcescens ATCC 27117; assay: Antibacterial activity, MIC; format: cell-based; details: ATCC27117, ATCC 27117, agar two-fold dilution, 37° C., 20 hours, read-out: MIC
Description: as §1, §2

[8] = system: Pseudomonas aeruginosa ATCC 25619; assay: Antibacterial activity, MIC; format: cell-based; details: ATCC25619, ATCC 25619, agar two-fold dilution, 37° C., 20 hours, read-out: MIC
Description: as §1, §2

[9] = system: Klebsiella pneumoniae ATCC 10031; assay: Antibacterial activity, MIC; format: cell-based; details: ATCC10031, ATCC 10031, agar two-fold dilution, 37° C., 20 hours, read-out: MIC
Description: as §1, §2

[10] = system: Citrobacter freundii ATCC 8090; assay: Antibacterial activity, MIC; format: cell-based; details: ATCC8090, ATCC 8090, agar two-fold dilution, 37° C., 20 hours, read-out: MIC
Description: as §1, §2

[11] = system: Staphylococcus aureus ATCC 10537; assay: Antibacterial activity, MIC; format: cell-based; details: ATCC10537, ATCC 10537, agar two-fold dilution, 37° C., 20 hours, read-out: MIC
Description: as §1, §2

[12] = system: Salmonella typhimurium ATCC 14028; assay: Antibacterial activity, MIC; format: cell-based; details: Salmonella enterica; ATCC 14028; agar two-fold dilution, 37° C., 20 hours; read-out: MIC
Description: as §1, §2

[13] = system: Micrococcus luteus ATCC 9341; assay: Antibacterial activity, MIC; format: cell-based; details: ATCC9341, ATCC 9341, agar two-fold dilution, 37° C., 20 hours, read-out: MIC
Description: as §1, §2

[14] = system: Bacillus cereus ATCC 11778; assay: Antibacterial activity, MIC; format: cell-based; details: ATCC11778, ATCC 11778, agar two-fold dilution, 37° C., 20 hours, read-out: MIC
Description: as §1, §2

[15] = system: Pseudomonas aeruginosa ATCC 10145; assay: Antibacterial activity, MIC; format: cell-based; details: ATCC10145, ATCC 10145, agar two-fold dilution, 37° C., 20 hours, read-out: MIC
Description: as §1, §2

[16] = system: Morganella morganii ATCC 8076h; assay: Antibacterial activity, MIC; format: cell-based; details: ATCC8076H, agar two-fold dilution, 37° C., 20 hours
Description: as §1, §2

[17] = system: Pseudomonas aeruginosa ATCC 27853; assay: Antibacterial activity, MIC; format: cell-based; details: ATCC27853, ATCC 27853, agar two-fold dilution, 37° C., 20 hours, read-out: MIC
Description: as §1, §2

[18] = system: Enterobacter aerogenes ATCC 29751; assay: Antibacterial activity, MIC; format: cell-based; details: Klebsiella aerogenes, ATCC29751; ATCC 29751; agar two-fold dilution, 37° C., 20 hours; read-out: MIC
Description: as §1, §2

[19] = system: Escherichia coli ATCC 25922; assay: Antibacterial activity, MIC; format: cell-based; details: ATCC25922, agar two-fold dilution, 37° C., 20 hours
Description: as §1, §2

[20] = system: Providencia rettgeri ATCC 9250; assay: Antibacterial activity, MIC; format: cell-based; details: ATCC9250, agar two-fold dilution, 37° C., 20 hours
Description: as §1, §2

[21] = system: Escherichia coli ATCC 10536; assay: Antibacterial activity, MIC; format: cell-based; details: ATCC10536, agar two-fold dilution, 37° C., 20 hours
Description: as §1, §2

[22] = system: Streptococcus faecalis ATCC 29212; assay: Antibacterial activity, MIC; format: cell-based; details: Enterococcus faecalis, ATCC29212; ATCC 29212; agar two-fold dilution, 37° C., 20 hours; read-out: MIC
Description: as §1, §2

[23] = system: Staphylococcus aureus ATCC 6538p; assay: Antibacterial activity, MIC; format: cell-based; details: ATCC6538P, ATCC 6538p, agar two-fold dilution, 37° C., 20 hours, read-out: MIC
Description: as §1, §2

[24] = system: Acinetobacter calcoaceticus ATCC 15473; assay: Antibacterial activity, MIC; format: cell-based; details: ATCC15473, ATCC 15473, agar two-fold dilution, 37° C., 20 hours, read-out: MIC
Description: as §1, §2

[25] = system: Enterobacter cloacae ATCC 27508; assay: Antibacterial activity, MIC; format: cell-based; details: ATCC27508, ATCC 27508, agar two-fold dilution, 37° C., 20 hours, read-out: MIC
Description: as §1, §2

[26] = In-vivo absorbency (plasma concentrations & pharmacokinetic parameters); set-up: species or system SD rat (male); details: plasma, SD male rat, iv 20 mg/kg, read-out: Plasma Conc.
[27] = as above; set-up: species or system SD rat (male); details: plasma, SD male rat, iv 20 mg/kg; for half-life: rat, iv, 20 mg/kg
Description: The blood samples from the femoral vein of the rats were taken every hour after administration, and analyzed by bio-assay(agar well method).
Tested animal: SD male Rat (220~340 g)

CO/N=C(\C(=O)NC1C(=O)N2C(C(=O)[O-])=C(CSc3nc(N)cc(N)[n+]3N)CSC12)c1csc(N)n1 (stereo not drawn) [Compound I-19]
MIC [1]: 0.13 µg/mL (≈ 0.235 µM) | MIC [2]: 0.016 µg/mL (≈ 0.029 µM) | MIC [3]: 0.13 µg/mL (≈ 0.235 µM) | MIC [4]: 0.063 µg/mL (≈ 0.114 µM) | MIC [5]: 0.063 µg/mL (≈ 0.114 µM) | MIC [6]: 0.016 µg/mL (≈ 0.029 µM) | MIC [7]: 0.25 µg/mL (≈ 0.452 µM) | MIC [8]: 0.5 µg/mL (≈ 0.905 µM) | MIC [9]: ≤ 0.008 µg/mL | MIC [10]: 0.13 µg/mL (≈ 0.235 µM) | MIC [11]: 0.5 µg/mL (≈ 0.905 µM) | MIC [12]: 0.25 µg/mL (≈ 0.452 µM) | MIC [13]: 0.016 µg/mL (≈ 0.029 µM) | MIC [14]: 8 µg/mL (≈ 14.5 µM) | MIC [15]: 2 µg/mL (≈ 3.62 µM) | MIC [16]: 0.008 µg/mL (≈ 0.0145 µM) | MIC [17]: 1 µg/mL (≈ 1.81 µM) | MIC [18]: 0.25 µg/mL (≈ 0.452 µM) | MIC [19]: 0.13 µg/mL (≈ 0.235 µM) | MIC [20]: ≤ 0.008 µg/mL | MIC [21]: 0.13 µg/mL (≈ 0.235 µM) | MIC [22]: 32 µg/mL (≈ 57.9 µM) | MIC [23]: 0.25 µg/mL (≈ 0.452 µM) | MIC [24]: 4 µg/mL (≈ 7.24 µM) | MIC [25]: 0.016 µg/mL (≈ 0.029 µM)

Cc1c(N)nc(SCC2=C(C(=O)[O-])N3C(=O)C(NC(=O)/C(=N\OC(C)(C)C(=O)O)c4csc(N)n4)C3SC2)[n+](N)c1N (stereo not drawn) [Compound I-34]
concentration at 0.5 min ([26]; 0.5 min): 181000 ng/mL | concentration at 2.5 min ([26]; 2.5 min): 89000 ng/mL | concentration at 5 min ([26]; 5 min): 68000 ng/mL | concentration at 10 min ([26]; 10 min): 47000 ng/mL | concentration at 20 min ([26]; 20 min): 31000 ng/mL | concentration at 40 min ([26]; 40 min): 15000 ng/mL | concentration at 1 h ([27]; 60 min, read-out: Plasma Conc.): 7800 ng/mL | concentration at 2 h ([27]; 120 min, read-out: Plasma Conc.): 1200 ng/mL | AUC ([27]; two compartment model): 37200 ng·h/mL | half-life ([27]; two compartment model, read-out: T1/2 (α)): 1 min | half-life ([27]; two compartment model, read-out: T1/2 (β)): 21 min | MIC [2]: 0.063 µg/mL (≈ 0.0986 µM) | MIC [3]: 0.031 µg/mL (≈ 0.0485 µM) | MIC [4]: 0.063 µg/mL (≈ 0.0986 µM) | MIC [5]: 2 µg/mL (≈ 3.13 µM) | MIC [6]: 0.031 µg/mL (≈ 0.0485 µM) | MIC [7]: 0.13 µg/mL (≈ 0.204 µM) | MIC [8]: 2 µg/mL (≈ 3.13 µM) | MIC [9]: 0.063 µg/mL (≈ 0.0986 µM) | MIC [10]: 0.063 µg/mL (≈ 0.0986 µM) | MIC [11]: 2 µg/mL (≈ 3.13 µM) | MIC [12]: 0.13 µg/mL (≈ 0.204 µM) | MIC [13]: 0.5 µg/mL (≈ 0.783 µM) | MIC [14]: 128 µg/mL (≈ 200 µM) | MIC [15]: 2 µg/mL (≈ 3.13 µM) | MIC [16]: ≤ 0.008 µg/mL | MIC [17]: 2 µg/mL (≈ 3.13 µM) | MIC [18]: 1 µg/mL (≈ 1.57 µM) | MIC [19]: 0.13 µg/mL (≈ 0.204 µM) | MIC [20]: ≤ 0.008 µg/mL | MIC [21]: 0.063 µg/mL (≈ 0.0986 µM) | MIC [22]: > 128 µg/mL | MIC [23]: 4 µg/mL (≈ 6.26 µM) | MIC [24]: 4 µg/mL (≈ 6.26 µM) | MIC [25]: 0.016 µg/mL (≈ 0.0251 µM)
